Results published in US20260007612A1, “Novel Ionizable Cationic Lipids” (Vivasor, Inc., priority 2022, published 2026).

Key:
[1] = Lipid nanoparticle characterization (size, PDI, zeta potential, encapsulation efficiency); format: physicochemical; settings: Fresh samples; LNP of named lipid:DSPC:Cholesterol:GM020=50:10:38.5:1.5 (DS-001 25:10:38.5:1.5); 250 μg mRNA
Protocol: Lipid nanoparticles were prepared with the following compositions: • ALC-0315:DSPC:Cholesterol:GM020=50:10:38.5:1.5 (and buffer) (positive control) • TU-001:DSPC:Cholesterol:GM020=50:10:38.5:1.5 (and buffer) • TU-002:DSPC:Cholesterol:GM020=50:10:38.5:1.5 (and buffer) • TU-003:DSPC:Cholesterol:GM020=50:10:38.5:1.5 (and buffer) • TU-004:DSPC:Cholesterol:GM020=50:10:38.5:1.5 (and buffer) • TU-005:DSPC:Cholesterol:GM020=50:10:38.5:1.5 (and buffer) • TU-006:DSPC:Cholesterol:GM020=50:10:38.5:1.5 (and buffer) • TU-007:DSPC:Cholesterol:GM020=50:10:38.5:1.5 (and buffer) • TU-008:DSPC:Cholesterol:GM020=50:10:38.5:1.5 (and buffer) • TU-009:DSPC:Cholesterol:GM020=50:10:38.5:1.5 (and buffer) • BAE-001:DSPC:Cholesterol:GM020=50:10:38.5:1.5 (and buffer) • BAA-001:DSPC:Cholesterol:GM020=50:10:38.5:1.5 (and buffer) • DS-001:DSPC:Cholesterol:GM020=25:10:38.5:1.5 (and buffer) • KT-001:DSPC:Cholesterol:GM020=50:10:38.5:1.5 (and buffer) • Where buffer is water, Trehalose, Tris Base, sodium chloride. DSPC is 1,2-distearoyl-sn-glycero-3-phosphocholine. GM020 is DMG-PEG (1,2-Dimyristoyl-rac-glycero-3-methylpolyoxyethylene).
Table 1 summarizes the lipid nanoparticle characterization with respect to various parameters including nanoparticle size (Z avg), polydispersity index (PDI), charge (Zeta potential), encapsulation efficiency and yield.

[2] = test system: female Balb/c mice; assay: In vivo efficacy of SARS-CoV-2 Spike mRNA in lipid nanoparticle formulation: serum anti-Spike IgG by ELISA; settings: FIGS. 1C-D, intramuscular, 28 days following injection

SMILES	Encapsulation Efficiency [1] [%]	PDI [1]	Z Avg. [1] [nm]	Zeta Potential [1] [mV]	amount of anti-Spike antibody (of SARS-CoV-2) produced in mice [2]
CCCCCCCCC(CCCCCC)C(=O)OCCCCCCN(CCCCO)CCCCCCOC(=O)C(CCCCCC)CCCCCCCC (stereo not shown) [ALC-0315, reference compound]	83.16	0.223	78.67	−4.74	–
CCCCCCCCC(CCCCCC)C(=O)OCCCCCCN(CCCCO)CCC(=O)OCCCCOC(=O)CCN(CCCCO)CCCCCCOC(=O)C(CCCCCC)CCCCCCCC (stereo not shown) [BAE-001]	83.32	0.141	111.7	−0.28	–
CCCCCCCCC(CCCCCC)C(=O)OCCCCCCN(CCCCCCOC(=O)C(CCCCCC)CCCCCCCC)CCCCNC(=O)OCCSSCCOC(=O)NCCCCN(CCCCCCOC(=O)C(CCCCCC)CCCCCCCC)CCCCCCOC(=O)C(CCCCCC)CCCCCCCC (stereo not shown) [DS-001]	84.50	0.12	63.0	−3.74	–
CCCCCCCCCC1(CCCCCC)OCC(CCCCN(CCCCO)CCCCC2COC(CCCCCC)(CCCCCCCCC)O2)O1 (stereo not shown) [KT-001]	80.60	0.08	84.7	−3.30	largest amounts
CCCCCCCCC(CCCCCC)C(=O)OCCCN(CCCOC(=O)C(CCCCCC)CCCCCCCC)C(=S)NCCCN1CCOCC1 (stereo not shown) [TU-002]	80.64	0.133	76.99	−2.55	–
CCCCCCCCC(CCCCCC)C(=O)OCCCN(CCCOC(=O)C(CCCCCC)CCCCCCCC)C(=S)NCCCN1CCCCC1C (stereo not shown) [TU-003]	90.47	0.23	73.29	−0.56	–
CCCCCCCCC(CCCCCC)C(=O)OCCCN(CCCOC(=O)C(CCCCCC)CCCCCCCC)C(=S)NCCCN1CCN(C)CC1 (stereo not shown) [TU-004]	72.53	0.24	79.77	−1.27	–
CCCCCCCCC(CCCCCC)C(=O)OCCCN(CCCOC(=O)C(CCCCCC)CCCCCCCC)C(=S)NCCCN (stereo not shown) [TU-005]	97.66	0.282	176.9	−0.842	–
CCCCCCCCC(CCCCCC)C(=O)OCCCN(CCCOC(=O)C(CCCCCC)CCCCCCCC)C(=S)NCCCN(CC)CC (stereo not shown) [TU-006]	81.48	0.278	68.84	−0.642	–
CCCCCCCCC(CCCCCC)C(=O)OCCCN(CCCOC(=O)C(CCCCCC)CCCCCCCC)C(=S)NCCCN(CCC)CCC (stereo not shown) [TU-007]	78.96	0.156	63.30	−2.68	–
CCCCCCCCC(CCCCCC)C(=O)OCCCN(CCCOC(=O)C(CCCCCC)CCCCCCCC)C(=S)NCCCNC(C)C (stereo not shown) [TU-008]	97.75	0.253	64.64	−1.07	–
CCCCCCCCC(CCCCCC)C(=O)OCCCN(CCCOC(=O)C(CCCCCC)CCCCCCCC)C(=S)NCCCN(CCCC)CCCC (stereo not shown) [TU-009]	80.76	0.188	64.82	−4.40	–
